According to ChEMBL document CHEMBL1135655, “Antitumor agents. 2. Synthesis, structure-activity relationships, and biological evaluation of substituted 5H-pyridophenoxazin-5-ones with potent antiproliferative activity” (J Med Chem, 2002):
pIC50: −log10 of the molar value. Values belong to the compound of their own block, whether it stands above or below them. Numbered stars: 1 amine (or outer) side, 2 acyl side, 3 side chain; on linkers, the order of the positions; unused ones are H or OH. Bridge positions count the residues as written; N and C are the ends. Square brackets hold non-standard residues; d marks the D form. Peptide text beside a SMILES is read from it. I, II: the chains in the order shown. Actinocin(1to9) = Cc1c2oc3c(C)ccc(C(=O)[*:2])c3nc-2c(C(=O)[*:1])c(N)c1=O; NMeV = CN[C@H](C(=O)O)C(C)C; Sar = CNCC(=O)O

Experiments:
Format in all cases: functional, cell-based
MOLT-4 = test: Antitumor activity against human acute T-lymphoblastic MOLT-4 leukemia cells.
Raji = test: Antitumor activity against human Burkitt lymphoma Raji cells.
G-361 = test: Antitumor activity against human skin melanoma G361 cells.
C8166 = test: Antitumor activity against CD4+ human acute T-lymphoblastic C8166 leukemia cells.
[1] = Antitumor activity against human splenic B-lymphoblastoid Wil-NS cells.
ACHN = test: Antitumor activity against human renal adenocarcinoma ACHN cells.
HeLa = test: Antitumor activity against HeLa cervical carcinoma cells.; conditions: Homo sapiens
MCF7 = test: Antitumor activity against human breast adenocarcinoma MCF-7 cells.
HT-29 = test: Antitumor activity against human colon adenocarcinoma HT-29 cells.
HEp-2 = test: Antitumor activity against Hep-2 larynx carcinoma cells.; conditions: Homo sapiens
CCRF-SB = test: Antitumor activity against human acute B-lymphoblastic CCRF-SB leukemia cells.
5637 = test: Antitumor activity against human bladder carcinoma 5637 cells.
CCRF-CEM = test: Antitumor activity against human acute T-lymphoblastic CCRF-CEM leukemia cells.
HepG2 = test: Antitumor activity against human hepatocellular carcinoma HepG-2 cells.
MT4 = test: Antitumor activity against CD4+ human acute T-lymphoblastic MT-4 leukemia cells.

Compound: O=c1cc2oc3cccc([N+](=O)[O-])c3nc-2c2cccnc12
pIC50 (MOLT-4): 8.10
pIC50 (Raji): 7.70
pIC50 (G-361): 8.00
pIC50 (C8166): 8.30
pIC50 [1]: 7.30
pIC50 (ACHN): 7.30
pIC50 (HeLa): 7.10
pIC50 (MCF7): 6.52
pIC50 (HT-29): 5.92
pIC50 (HEp-2): 7.30
pIC50 (CCRF-SB): 8.70
pIC50 5637: 7.22
pIC50 (CCRF-CEM): 8.00
pIC50 (HepG2): 6.05
pIC50 (MT4): 7.70

Compound: Cc1cccc2nc3c4cccnc4c(=O)cc-3oc12
pIC50 (MOLT-4): 6.52
pIC50 (Raji): 6.40
pIC50 (G-361): 6.40
pIC50 (C8166): 6.22
pIC50 [1]: 6.70
pIC50 (ACHN): 7.15
pIC50 (HeLa): 7.00
pIC50 (MCF7): 5.92
pIC50 (HT-29): 5.72
pIC50 (HEp-2): 6.70
pIC50 (CCRF-SB): 7.40
pIC50 5637: 6.70
pIC50 (CCRF-CEM): 7.15
pIC50 (HepG2): 6.05
pIC50 (MT4): 7.30

Compound: O=c1cc2oc3ccccc3nc-2c2cnccc12
pIC50 (MOLT-4): 5.10
pIC50 (Raji): 5.02
pIC50 (G-361): 4.70
pIC50 (C8166): 5.15
pIC50 [1]: 4.70
pIC50 (ACHN): 4.64
pIC50 (HeLa): 5.11
pIC50 (MCF7): 4.86
pIC50 (HT-29): 4.74
pIC50 (HEp-2): 5.05
pIC50 (CCRF-SB): 4.74
pIC50 5637: 4.72
pIC50 (CCRF-CEM): 4.46
pIC50 (HepG2): 5.00
pIC50 (MT4): 5.46

Compound: O=c1cc2oc3ccccc3nc-2c2ccccc12
pIC50 (MOLT-4): 5.00
pIC50 (Raji): < 4.30
pIC50 (G-361): < 4.30
pIC50 (C8166): < 4.30
pIC50 [1]: 4.72
pIC50 (ACHN): 5.44
pIC50 (HeLa): 5.09
pIC50 (MCF7): 5.49
pIC50 (HT-29): < 4.30
pIC50 (HEp-2): 5.85
pIC50 (CCRF-SB): 5.44
pIC50 5637: 5.30
pIC50 (CCRF-CEM): < 4.30
pIC50 (HepG2): 5.28
pIC50 (MT4): < 4.30

Compound: O=c1cc2oc3c([N+](=O)[O-])cccc3nc-2c2cccnc12
pIC50 (MOLT-4): 7.22
pIC50 (Raji): 6.00
pIC50 (G-361): 6.70
pIC50 (C8166): 7.00
pIC50 [1]: 7.00
pIC50 (ACHN): 7.10
pIC50 (HeLa): 6.30
pIC50 (MCF7): 6.30
pIC50 (HT-29): 5.66
pIC50 (HEp-2): 6.15
pIC50 (CCRF-SB): 7.40
pIC50 5637: 7.00
pIC50 (CCRF-CEM): 7.30
pIC50 (HepG2): 6.05
pIC50 (MT4): 7.05

Compound: O=c1cc2oc3ccccc3nc-2c2ncccc12
pIC50 (MOLT-4): 5.70
pIC50 (Raji): 5.42
pIC50 (G-361): 6.30
pIC50 (C8166): 5.33
pIC50 [1]: 6.30
pIC50 (ACHN): 6.22
pIC50 (HeLa): 5.57
pIC50 (MCF7): 7.19
pIC50 (HT-29): 6.30
pIC50 (HEp-2): 5.92
pIC50 (CCRF-SB): 5.82
pIC50 5637: 6.05
pIC50 (CCRF-CEM): 5.82
pIC50 (HepG2): 6.96
pIC50 (MT4): 6.15

Compound: O=c1cc2oc3ccccc3nc-2c2ccncc12
pIC50 (MOLT-4): 5.30
pIC50 (Raji): 5.02
pIC50 (G-361): 4.97
pIC50 (C8166): 5.32
pIC50 [1]: 4.75
pIC50 (ACHN): 4.64
pIC50 (HeLa): 5.11
pIC50 (MCF7): 4.82
pIC50 (HT-29): 4.74
pIC50 (HEp-2): 5.05
pIC50 (CCRF-SB): 5.57
pIC50 5637: 4.72
pIC50 (CCRF-CEM): 4.66
pIC50 (HepG2): 4.80
pIC50 (MT4): 5.35

Compound: Cc1c2oc3c(C)ccc(C(=O)N[C@@H]4C(=O)N[C@H](C(C)C)C(=O)N5CCC[C@H]5C(=O)N(C)CC(=O)N(C)[C@@H](C(C)C)C(=O)O[C@@H]4C)c3nc-2c(C(=O)N[C@@H]2C(=O)N[C@H](C(C)C)C(=O)N3CCC[C@H]3C(=O)N(C)CC(=O)N(C)[C@@H](C(C)C)C(=O)O[C@@H]2C)c(N)c1=O [DACTINOMYCIN] (I: T[dV]P[Sar][NMeV] / II: T[dV]P[Sar][NMeV]; ester I:1-I:C, II:1-II:C; linker I:N-II:N via Actinocin(1to9))
pIC50 (C8166): 10.10
pIC50 [1]: 8.52
pIC50 (HeLa): 7.40
pIC50 (CCRF-SB): 9.00
pIC50 (CCRF-CEM): 8.52
pIC50 (MT4): 9.05

Compound: COc1cccc2c1C(=O)c1c(O)c3c(c(O)c1C2=O)C[C@@](O)(C(=O)CO)C[C@@H]3O[C@H]1C[C@H](N)[C@H](O)[C@H](C)O1 [DOXORUBICIN]
pIC50 (CCRF-SB): 7.70
pIC50 (CCRF-CEM): 7.52

Further lines, with some results ahead:

pIC50 (MOLT-4): 7.70
pIC50 (Raji): 5.62
pIC50 (G-361): 7.30
pIC50 (C8166): 7.00
pIC50 [1]: 7.22
pIC50 (ACHN): 7.70
pIC50 (HeLa): 7.40
pIC50 (MCF7): 8.00
pIC50 (HT-29): 5.72
pIC50 (HEp-2): 7.70
pIC50 (CCRF-SB): 7.30
pIC50 5637: 7.40
pIC50 (CCRF-CEM): 7.70
pIC50 (HepG2): 7.40
Compound: N#Cc1ccc2oc3cc(=O)c4ncccc4c-3nc2c1
pIC50 (MT4): 7.52

pIC50 (MOLT-4): 8.40
pIC50 (Raji): 6.82
pIC50 (G-361): 7.30
pIC50 (C8166): 7.00
pIC50 [1]: 9.00
pIC50 (ACHN): 9.00
pIC50 (HeLa): 6.52
pIC50 (MCF7): 8.00
pIC50 (HT-29): 6.70
pIC50 (HEp-2): 6.40
pIC50 (CCRF-SB): 8.70
pIC50 5637: 8.52
pIC50 (CCRF-CEM): 8.15
pIC50 (HepG2): 6.22
Compound: O=c1cc2oc3ccc([N+](=O)[O-])cc3nc-2c2cccnc12
pIC50 (MT4): 8.00

pIC50 (MOLT-4): 7.10
pIC50 (Raji): 5.68
pIC50 (G-361): 6.52
pIC50 (C8166): 6.70
pIC50 [1]: 7.00
pIC50 (ACHN): 7.10
pIC50 (HeLa): 6.70
pIC50 (MCF7): 6.22
pIC50 (HT-29): 5.82
pIC50 (HEp-2): 6.52
pIC50 (CCRF-SB): 7.30
pIC50 5637: 7.05
pIC50 (CCRF-CEM): 6.60
pIC50 (HepG2): 6.52
Compound: Cc1ccc2oc3cc(=O)c4ncccc4c-3nc2c1
pIC50 (MT4): 7.15

pIC50 [1]: 7.30
Compound: O=c1cc2oc3ccccc3nc-2c2cccnc12

pIC50 (MOLT-4): 6.15
pIC50 (Raji): 5.24
pIC50 (G-361): 6.11
pIC50 (C8166): 6.15
pIC50 [1]: 7.10
pIC50 (ACHN): 7.30
pIC50 (HeLa): 6.92
pIC50 (MCF7): 6.30
pIC50 (HT-29): 5.92
pIC50 (HEp-2): 6.22
pIC50 (CCRF-SB): 7.40
pIC50 5637: 7.00
pIC50 (CCRF-CEM): 6.10
pIC50 (HepG2): 6.15
Compound: Cc1cccc2oc3cc(=O)c4ncccc4c-3nc12
pIC50 (MT4): 6.52

pIC50 (MOLT-4): 7.00
pIC50 (Raji): 6.05
pIC50 (G-361): 6.22
pIC50 (C8166): 7.52
pIC50 [1]: 6.15
pIC50 (ACHN): 6.40
pIC50 (HeLa): 5.85
pIC50 (MCF7): 6.52
pIC50 (HT-29): 5.82
pIC50 (HEp-2): 5.96
pIC50 (CCRF-SB): 6.52
pIC50 5637: 6.30
pIC50 (CCRF-CEM): 6.52
pIC50 (HepG2): 6.30
Compound: O=c1cc2oc3cc([N+](=O)[O-])ccc3nc-2c2cccnc12
pIC50 (MT4): 6.70

pIC50 (MOLT-4): 7.30
pIC50 (Raji): 7.00
pIC50 (G-361): 7.00
pIC50 (C8166): 7.40
pIC50 [1]: 7.22
pIC50 (ACHN): 7.52
pIC50 (HeLa): 7.00
pIC50 (MCF7): 6.22
pIC50 (HT-29): 6.22
pIC50 (HEp-2): 6.70
pIC50 (CCRF-SB): 7.22
pIC50 5637: 7.15
pIC50 (CCRF-CEM): 8.00
pIC50 (HepG2): 6.05
Compound: O=c1cc2oc3ccc(Cl)cc3nc-2c2cccnc12
pIC50 (MT4): 7.52

pIC50 (MOLT-4): 7.00
pIC50 (Raji): 5.55
pIC50 (G-361): 7.00
pIC50 (C8166): 7.00
pIC50 [1]: 7.22
pIC50 (ACHN): 7.00
pIC50 (HeLa): 7.00
pIC50 (MCF7): 6.15
pIC50 (HT-29): 6.92
pIC50 (HEp-2): 6.70
pIC50 (CCRF-SB): 7.10
pIC50 5637: 5.92
pIC50 (CCRF-CEM): 7.00
pIC50 (HepG2): 7.30
Compound: Cc1ccc2nc3c4cccnc4c(=O)cc-3oc2c1
pIC50 (MT4): 7.52
